# Source: patent US20030044400A1, “Composition and method for treating cells” (priority 2001, published 2003)
# Legend:
# [1] = test system: CCD 18 Co (normal colon fibroblast); assay: Fetuin-induced apoptosis, Hoechst staining confirmed by MTS assay; assay type: cell-based, Human
# Method: (§1) The purified fetuin was tested on various cancer cell lines. […] The DNA condensation and breakage of nuclei which are the characteristics for apoptosis were observed by staining the cell with Hoechst dye at 0.1 ug/ml.
# (§2) Various concentrations of Zn-charged fetuin prepared as described were incubated with cell lines for 6 hr. Percent of cell under apoptosis was determined by Hoechst staining and confirmed by MTS assay. The concentration of Zn-charged fetuin for the induction of 50% of cells under apoptosis (LD50) was determined. Each data represents the average of three assays.
# [2] = test system: CCD 39 Lu (normal lung fibroblast); assay: as above; assay type: cell-based, Human
# Method: as §1, §2
# Calu-1 cells = assay: as above; assay type: cell-based, Human
# Method: as §1, §2
# Colo 205 cells = assay: as above; assay type: cell-based, Human
# Method: as §1, §2
# HL-60 cells = assay: as above; assay type: cell-based, Human
# Method: as §1, §2
# Hep G2 cells = assay: as above; assay type: cell-based, Human
# Method: as §1, §2
# MCF-7 cells = assay: as above; assay type: cell-based, Human
# Method: as §1, §2
# PC-3 cells = assay: as above; assay type: cell-based, Human
# Method: as §1, §2
# [3] = test system: WI 38 (normal lung fibroblast); assay: as above; assay type: cell-based, Human
# Method: as §1, §2
# PC-3 induced tumor = assay: Prostate Tumor Inhibition Model (PC-3, nude mice); assay type: in vivo, nude adult male mice; settings: for Avg. Weight Tumor / Avg. Weight mice / Total Weight Tumor: nude mice with PC-3 tumors
# Method: The 30-35 g nude adult male mice were used for this study. The inoculum of PC-3 cells applied to induce tumor formation was adjusted with RPMI-1640 to 2×10^7 cells/0.1 ml. To induce tumor formation, a 0.1 ml suspension of PC-3 was injected subcutaneously at a site between the ears using a 26 gauge, ⅜″ needle. The tumors were allowed to grow for 38 days. The mice in the control group received 0.1 ml saline intraperitoneally for 10 days. Mice in the treated group received 10 consecutive 0.1 ml intraperitoneal injections of Fetuin adjusted by dilution in sterile deionized water to deliver dose concentration of 0.1 ml, 0.01 ml and 0.001 ml at 10 mg/ml. Tumors were weighed individually when the mice were sacrificed for subsequent histopathology study.
# [4] = Antigenic response after Fetuin injection; assay type: in vivo; settings: mice, rat and rabbits to bovine
# Source text: However, the species are mice, rat and rabbits to bovine, not human to bovine. The amino acid sequence of Fetuin homologue between species is about 65%. Because the mechanism of Fetuin exerting the drug effect is by binding to the growth factors, this is expected to have less immune response than other protein nature drugs.
# [5] = Zn-charged fetuin, 6 hr, average of three assays
# [6] = purified fetuin, Hoechst dye 0.1 ug/ml
# [7] = Fetuin 0.001 ml × 10 ip (10 mg/ml)
# [8] = Fetuin 0.01 ml × 10 ip (10 mg/ml)
# [9] = Fetuin 0.1 ml × 10 ip (10 mg/ml)
substance,measurement,setting,value
"Fetuin: Fetal bovine fetuin purified from fetal bovine serum by modified Spiro method; 60 Kd glycoprotein, homologue of alpha 2-HS glycoprotein",LD50 of Fetuin-induced Apoptosis,"[1]; CCD 18 Co, Zn-charged fetuin, 6 hr, average of three assays",>100 µM
same,induction of apoptosis,"[1]; CCD18Co, purified fetuin, Hoechst dye 0.1 ug/ml",did not induce apoptosis
same,LD50 of Fetuin-induced Apoptosis,"[2]; CCD 39 Lu, Zn-charged fetuin, 6 hr, average of three assays",>100 µM
same,induction of apoptosis,"[2]; CCD39Lu, purified fetuin, Hoechst dye 0.1 ug/ml",did not induce apoptosis
same,LD50 of Fetuin-induced Apoptosis,Calu-1 cells; [5],4 µM
same,induction of apoptosis,Calu-1 cells; [6],strongly induced apoptosis
same,LD50 of Fetuin-induced Apoptosis,Colo 205 cells; [5],5 µM
same,induction of apoptosis,Colo 205 cells; [6],strongly induced apoptosis
same,LD50 of Fetuin-induced Apoptosis,"HL-60 cells; HL-60, Zn-charged fetuin, 6 hr, average of three assays",5 µM
same,induction of apoptosis,"HL-60 cells; HL-60, purified fetuin, Hoechst dye 0.1 ug/ml",strongly induced apoptosis
same,apoptosis of HL-60 cells,HL-60 cells; at 1 uM,induce apoptosis
same,LD50 of Fetuin-induced Apoptosis,"Hep G2 cells; Hep G2, Zn-charged fetuin, 6 hr, average of three assays",20 µM
same,induction of apoptosis,"Hep G2 cells; HepG2, purified fetuin, Hoechst dye 0.1 ug/ml",strongly induced apoptosis
same,LD50 of Fetuin-induced Apoptosis,MCF-7 cells; [5],8 µM
same,induction of apoptosis,MCF-7 cells; [6],strongly induced apoptosis
same,LD50 of Fetuin-induced Apoptosis,PC-3 cells; [5],1 µM
same,induction of apoptosis,PC-3 cells; [6],strongly induced apoptosis
same,LD50 of Fetuin-induced Apoptosis,"[3]; WI 38, Zn-charged fetuin, 6 hr, average of three assays",>100 µM
same,induction of apoptosis,"[3]; WI-38, purified fetuin, Hoechst dye 0.1 ug/ml",did not induce apoptosis
same,prostate tumor size compared to the control group,PC-3 induced tumor; highest doses,40%
same,Avg. Weight Tumor,PC-3 induced tumor; [7],2.03 g
same,Avg. Weight mice,PC-3 induced tumor; [7],33.9 g
same,Total Weight Tumor,PC-3 induced tumor; [7],6.1 g
same,Avg. Weight Tumor,PC-3 induced tumor; [8],2.08 g
same,Avg. Weight mice,PC-3 induced tumor; [8],35.3 g
same,Total Weight Tumor,PC-3 induced tumor; [8],6.24 g
same,Avg. Weight Tumor,PC-3 induced tumor; [9],1.01 g
same,Avg. Weight mice,PC-3 induced tumor; [9],32.0 g
same,Total Weight Tumor,PC-3 induced tumor; [9],3.04 g
same,hypersensitivity reaction after Fetuin injection,[4],no hypersensitivity reaction was shown
